In ChEMBL document CHEMBL4368888, “Design, synthesis and biological evaluation of tryptamine salicylic acid derivatives as potential antitumor agents” (Medchemcomm, 2019):
Activity calls are given as the source filed them. The calls are words filed in the database; no cut-off is given here.

Legend:
[1] = system: MCF7; test: Antiproliferative activity against human MCF7 cells after 48 hrs by MTT assay; format: functional, cell-based; conditions: MCF7, 48 h
[2] = system: A549; test: Antiproliferative activity against human A549 cells after 48 hrs by MTT assay; format: functional, cell-based; conditions: A549, 48 h
[3] = system: MGC-803; test: Antiproliferative activity against human MGC803 cells after 48 hrs by MTT assay; format: functional, cell-based; conditions: MGC-803, 48 h
[4] = system: HepG2; test: Antiproliferative activity against human HepG2 cells after 48 hrs by MTT assay; format: functional, cell-based; conditions: HepG2, 48 h
[5] = system: HeLa; test: Antiproliferative activity against human HeLa cells after 48 hrs by MTT assay; format: functional, cell-based
[6] = system: MGC-803; test: Inhibition of colony formation in human MGC803 cells assessed as reduction in viable cells incubated for 9 days where culture medium was changed every 3 days by crystal violet staining-based assay; format: functional, cell-based
[7] = system: MGC-803; test: Inhibition of colony formation in human MGC803 cells assessed as reduction in viable cells at 40 uM incubated for 9 days where culture medium was changed every 3 days by crystal violet staining-based assay; format: functional
[8] = system: MGC-803; test: Antimigratory activity against human MGC803 cells after 48 hrs by scratch wound-healing assay; format: functional, cell-based
[9] = system: MGC-803; test: Induction of apoptosis in human MGC803 cells assessed as viable cells at 10 uM after 24 hrs by Annexin V-FITC/propidium iodide staining-based flow cytometric analysis (reference value: 94.2%); format: functional; conditions: MGC-803, 24 h, read-out: Activity
[10] = system: MGC-803; test: Induction of apoptosis in human MGC803 cells assessed as early apoptotic cells at 10 uM after 24 hrs by Annexin V-FITC/propidium iodide staining-based flow cytometric analysis (reference value: 1.04%); format: functional
[11] = system: MGC-803; test: Induction of apoptosis in human MGC803 cells assessed as late apoptotic cells at 10 uM after 24 hrs by Annexin V-FITC/propidium iodide staining-based flow cytometric analysis (reference value: 4.17%); format: functional
[12] = system: MGC-803; test: Induction of apoptosis in human MGC803 cells assessed as necrotic cells at 10 uM after 24 hrs by Annexin V-FITC/propidium iodide staining-based flow cytometric analysis (reference value: 0.556%); format: functional
[13] = system: MGC-803; test: Induction of apoptosis in human MGC803 cells assessed as viable cells at 20 uM after 24 hrs by Annexin V-FITC/propidium iodide staining-based flow cytometric analysis (reference value: 94.2%); format: functional; conditions: MGC-803, 24 h, read-out: Activity
[14] = system: MGC-803; test: Induction of apoptosis in human MGC803 cells assessed as early apoptotic cells at 20 uM after 24 hrs by Annexin V-FITC/propidium iodide staining-based flow cytometric analysis (reference value: 1.04%); format: functional
[15] = system: MGC-803; test: Induction of apoptosis in human MGC803 cells assessed as late apoptotic cells at 20 uM after 24 hrs by Annexin V-FITC/propidium iodide staining-based flow cytometric analysis (reference value: 4.17%); format: functional
[16] = system: MGC-803; test: Induction of apoptosis in human MGC803 cells assessed as necrotic cells at 20 uM after 24 hrs by Annexin V-FITC/propidium iodide staining-based flow cytometric analysis (reference value: 0.556%); format: functional
[17] = system: MGC-803; test: Induction of apoptosis in human MGC803 cells assessed as viable cells at 30 uM after 24 hrs by Annexin V-FITC/propidium iodide staining-based flow cytometric analysis (reference value: 94.2%); format: functional; conditions: MGC-803, 24 h, read-out: Activity
[18] = system: MGC-803; test: Induction of apoptosis in human MGC803 cells assessed as early apoptotic cells at 30 uM after 24 hrs by Annexin V-FITC/propidium iodide staining-based flow cytometric analysis (reference value: 1.04%); format: functional
[19] = system: MGC-803; test: Induction of apoptosis in human MGC803 cells assessed as late apoptotic cells at 30 uM after 24 hrs by Annexin V-FITC/propidium iodide staining-based flow cytometric analysis (reference value: 4.17%); format: functional
[20] = system: MGC-803; test: Induction of apoptosis in human MGC803 cells assessed as necrotic cells at 30 uM after 24 hrs by Annexin V-FITC/propidium iodide staining-based flow cytometric analysis (reference value: 0.556%); format: functional
[21] = system: MGC-803; test: Induction of apoptosis in human MGC803 cells after 24 hrs by Annexin V-FITC/propidium iodide staining-based flow cytometric analysis; format: functional, cell-based
[22] = system: MGC-803; test: Cell cycle arrest in human MGC803 cells assessed as accumulation of cells at G0/G1 phase at 20 uM after 24 hrs by propidium iodide staining-based flow cytometric analysis (reference value: 51.37%); format: functional
[23] = system: MGC-803; test: Cell cycle arrest in human MGC803 cells assessed as accumulation of cells at S phase at 20 uM after 24 hrs by propidium iodide staining-based flow cytometric analysis (reference value: 37.1%); format: functional
[24] = system: MGC-803; test: Cell cycle arrest in human MGC803 cells assessed as accumulation of cells at G2/M phase at 20 uM after 24 hrs by propidium iodide staining-based flow cytometric analysis (reference value: 9.86%); format: functional
[25] = system: MGC-803; test: Cell cycle arrest in human MGC803 cells assessed as accumulation of cells at G0/G1 phase at 40 uM after 24 hrs by propidium iodide staining-based flow cytometric analysis (reference value: 51.37%); format: functional
[26] = system: MGC-803; test: Cell cycle arrest in human MGC803 cells assessed as accumulation of cells at S phase at 40 uM after 24 hrs by propidium iodide staining-based flow cytometric analysis (reference value: 37.1%); format: functional
[27] = system: MGC-803; test: Cell cycle arrest in human MGC803 cells assessed as accumulation of cells at G2/M phase at 40 uM after 24 hrs by propidium iodide staining-based flow cytometric analysis (reference value: 9.86%); format: functional
[28] = system: MGC-803; test: Cell cycle arrest in human MGC803 cells assessed as accumulation of cells at G0/G1 phase at 60 uM after 24 hrs by propidium iodide staining-based flow cytometric analysis (reference value: 51.37%); format: functional
[29] = system: MGC-803; test: Cell cycle arrest in human MGC803 cells assessed as accumulation of cells at S phase at 60 uM after 24 hrs by propidium iodide staining-based flow cytometric analysis (reference value: 37.1%); format: functional
[30] = system: MGC-803; test: Cell cycle arrest in human MGC803 cells assessed as accumulation of cells at G2/M phase at 60 uM after 24 hrs by propidium iodide staining-based flow cytometric analysis (reference value: 9.86%); format: functional
[31] = system: MGC-803; test: Cell cycle arrest in human MGC803 cells assessed as accumulation of cells at G2/M phase after 24 hrs by propidium iodide staining-based flow cytometric analysis; format: functional
[32] = system: MGC-803; test: Effect on HIF-1 expression levels in human MGC803 cells at 10 to 40 uM in presence of 100 uM CoCl2 after 24 hrs by Western blot analysis; format: functional, cell-based
[33] = system: MGC-803; test: Effect on PFK expression levels in human MGC803 cells at 10 to 40 uM after 24 hrs by Western blot analysis; format: functional, cell-based
[34] = system: MGC-803; test: Down regulation of HK2 expression levels in human MGC803 cells at 10 to 40 uM after 24 hrs by Western blot analysis; format: functional, cell-based

In the case of `Cc1cccc(C(=O)NCCc2c[nH]c3ccc(Br)cc23)c1O`, the IC50 [1] is reported as 63 µM, the IC50 [2] is reported as 36 µM and the IC50 [3] is reported as 29 µM. For the same compound, the IC50 [4] was 45 µM, the IC50 [5] was 52 µM and the inhibition [6] was “Dose-dependent effect”. The inhibition at 40 µM [7] was 100%, the Activity [8] was “Dose-dependent effect” and the viability at 10 µM [9] was 91.5%. The Activity [10] was 1.66%, the Activity [11] was 6.56% and the Activity [12] was 0.25%. It also gave a viability at 20 µM [13] of 83%, an Activity [14] of 5.97% and an Activity [15] of 9.67%. The Activity [16] was 1.37%, the viability at 30 µM [17] was 41.3% and the Activity [18] was 42.7%. For the same compound, the Activity [19] was 15.4%, the Activity [20] was 0.587% and the Activity [21] was “Dose-dependent effect”. It also gave an Activity [22] of 43%, an Activity [23] of 21.11% and an Activity [24] of 27.01%. It also gave an Activity [25] of 49.99%, an Activity [26] of 15.58% and an Activity [27] of 34.65%. The Activity [28] was 52.98%, the Activity [29] was 7.56% and the Activity [30] was 40.78%. For the same compound, the Activity [31] was “Dose-dependent effect”, the Activity [32] was “inactive” and the Activity [33] was “inactive”. The Activity [34] was “Active”.
